{
  "source": "ChEMBL document CHEMBL1201862",
  "about": "“PubChem BioAssay data set” (2004)",
  "key": {"Vero": {"test_system": "Vero", "experiment": "Vero cell cytotoxicity, cytotoxicity control for flavivirus capping enzyme inhibitors (AID 588742)", "assay_type": "functional", "settings": "Chlorocebus sabaeus"}, "Genome polyprotein": {"molecular_target": "Genome polyprotein (dengue virus type 2, UniProt P29990)", "experiment": "Dengue-2 NS5 methyltransferase inhibitors, primary screen, biochemical, confirmation dose response (AID 588689)", "assay_type": "functional"}, "[1]": {"molecular_target": "T1, Delta-type opioid receptor (Homo sapiens, UniProt P41143)", "T1 sequence (P41143 whole entry)": "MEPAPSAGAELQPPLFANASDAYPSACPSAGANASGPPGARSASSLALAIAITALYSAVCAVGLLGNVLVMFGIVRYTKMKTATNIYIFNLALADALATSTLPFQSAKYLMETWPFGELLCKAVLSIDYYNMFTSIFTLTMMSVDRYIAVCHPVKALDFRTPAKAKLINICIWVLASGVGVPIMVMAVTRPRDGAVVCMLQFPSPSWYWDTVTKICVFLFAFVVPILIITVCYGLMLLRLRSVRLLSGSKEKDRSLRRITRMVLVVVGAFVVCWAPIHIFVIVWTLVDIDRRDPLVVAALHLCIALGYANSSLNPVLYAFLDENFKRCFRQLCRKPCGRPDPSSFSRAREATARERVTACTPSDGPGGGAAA", "experiment": "HTS Image-Based Screen for Antagonists of the DOR Receptor. [Related pubchem assays (depositor defined):AID1777, AID1785, AID1786, AID2133]", "assay_type": "functional"}, "[2]": {"experiment": "inhibitors of firefly luciferase expression or activity, dose response, H4 neuroglioma cells, luminescence (AID 1990)", "assay_type": "functional, cell-based"}, "Mu-type opioid receptor": {"molecular_target": "Mu-type opioid receptor (Homo sapiens, UniProt P35372)", "experiment": "HTS Image-Based Screen for Agonists of the MOR Receptor. [Related pubchem assays (depositor defined):AID1777, AID1785, AID1786, AID2133]", "assay_type": "functional"}, "[3]": {"test_system": "Streptococcus sp. 'group A'", "experiment": "growth inhibition of control SK(-) GAS strain, dose response, counter-screen for streptokinase expression inhibitor project, luminescence, kanamycin, BacTiterGlo, confirmation (AID 1900)", "assay_type": "functional, organism-based"}, "[4]": {"molecular_target": "T1, Delta-type opioid receptor", "experiment": "HTS Image-Based Screen for Agonists of the DOR Receptor. [Related pubchem assays (depositor defined):AID1777, AID1786, AID2133]", "assay_type": "functional"}, "[5]": {"experiment": "Luminescence Cell-Based Dose Response HTS to Identify Inhibitors of 5'UTR Stem-Loop Driven Prion Protein mRNA Translation in H4 Neuroglioblastoma Cells. [Related pubchem assays: 1827 (Project Summary), 1813 (Primary HTS)]", "assay_type": "functional"}, "[6]": {"experiment": "inhibitors of SNCA 5'UTR-driven reporter translation, confirmation, H4 neuroglioma cells, luminescence (AID 1988)", "assay_type": "functional, cell-based"}, "Streptokinase A": {"molecular_target": "T2, Streptokinase A (Streptococcus pyogenes serotype M1, UniProt P10520)", "T2 sequence (P10520 whole entry)": "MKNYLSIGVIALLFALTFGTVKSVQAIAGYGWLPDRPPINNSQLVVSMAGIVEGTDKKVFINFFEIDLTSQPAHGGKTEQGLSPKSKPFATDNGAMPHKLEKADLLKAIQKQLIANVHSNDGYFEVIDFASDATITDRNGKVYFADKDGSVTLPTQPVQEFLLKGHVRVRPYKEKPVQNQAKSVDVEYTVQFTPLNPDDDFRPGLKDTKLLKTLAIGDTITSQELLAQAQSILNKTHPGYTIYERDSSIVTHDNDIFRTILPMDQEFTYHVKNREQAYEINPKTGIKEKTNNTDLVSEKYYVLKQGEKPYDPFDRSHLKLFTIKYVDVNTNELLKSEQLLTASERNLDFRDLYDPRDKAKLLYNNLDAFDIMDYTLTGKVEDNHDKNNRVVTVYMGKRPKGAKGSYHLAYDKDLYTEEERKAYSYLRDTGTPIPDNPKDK", "experiment": "S. pyogenes streptokinase expression inhibitors, potency, dose response, plasminogen activation absorbance, OD405 (AID 1914);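 further: secreted streptokinase activity via plasminogen activation per viability signal from cell pellet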", "assay_type": "functional, Streptococcus pyogenes M1 GAS"}, "[7]": {"experiment": "growth suppression of PTEN-null colon cells, dose response, cell-based, HCT116 PTEN knockout (AID 1047);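 further: HCT116 colon tumor cells with PTEN knocked out; cells exposed to compound for 60 hours before readout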", "assay_type": "functional"}, "[8]": {"molecular_target": "T3, Kappa-type opioid receptor (Homo sapiens, UniProt P41145)", "T3 sequence (P41145 whole entry)": "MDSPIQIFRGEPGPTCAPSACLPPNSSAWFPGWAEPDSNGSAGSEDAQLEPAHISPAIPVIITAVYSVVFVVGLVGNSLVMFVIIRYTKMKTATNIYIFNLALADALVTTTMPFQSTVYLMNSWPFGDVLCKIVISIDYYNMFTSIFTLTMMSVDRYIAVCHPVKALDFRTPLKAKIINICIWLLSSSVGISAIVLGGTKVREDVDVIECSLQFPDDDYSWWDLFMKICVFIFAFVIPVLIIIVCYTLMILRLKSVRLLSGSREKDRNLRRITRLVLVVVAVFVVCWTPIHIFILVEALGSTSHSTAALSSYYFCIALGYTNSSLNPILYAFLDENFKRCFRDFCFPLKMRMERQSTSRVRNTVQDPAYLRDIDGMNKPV", "assay_type": "functional"}, "Beta-galactosidase": {"molecular_target": "Beta-galactosidase (Escherichia coli, UniProt Q8VNN2)", "sequence (Q8VNN2 whole entry)": "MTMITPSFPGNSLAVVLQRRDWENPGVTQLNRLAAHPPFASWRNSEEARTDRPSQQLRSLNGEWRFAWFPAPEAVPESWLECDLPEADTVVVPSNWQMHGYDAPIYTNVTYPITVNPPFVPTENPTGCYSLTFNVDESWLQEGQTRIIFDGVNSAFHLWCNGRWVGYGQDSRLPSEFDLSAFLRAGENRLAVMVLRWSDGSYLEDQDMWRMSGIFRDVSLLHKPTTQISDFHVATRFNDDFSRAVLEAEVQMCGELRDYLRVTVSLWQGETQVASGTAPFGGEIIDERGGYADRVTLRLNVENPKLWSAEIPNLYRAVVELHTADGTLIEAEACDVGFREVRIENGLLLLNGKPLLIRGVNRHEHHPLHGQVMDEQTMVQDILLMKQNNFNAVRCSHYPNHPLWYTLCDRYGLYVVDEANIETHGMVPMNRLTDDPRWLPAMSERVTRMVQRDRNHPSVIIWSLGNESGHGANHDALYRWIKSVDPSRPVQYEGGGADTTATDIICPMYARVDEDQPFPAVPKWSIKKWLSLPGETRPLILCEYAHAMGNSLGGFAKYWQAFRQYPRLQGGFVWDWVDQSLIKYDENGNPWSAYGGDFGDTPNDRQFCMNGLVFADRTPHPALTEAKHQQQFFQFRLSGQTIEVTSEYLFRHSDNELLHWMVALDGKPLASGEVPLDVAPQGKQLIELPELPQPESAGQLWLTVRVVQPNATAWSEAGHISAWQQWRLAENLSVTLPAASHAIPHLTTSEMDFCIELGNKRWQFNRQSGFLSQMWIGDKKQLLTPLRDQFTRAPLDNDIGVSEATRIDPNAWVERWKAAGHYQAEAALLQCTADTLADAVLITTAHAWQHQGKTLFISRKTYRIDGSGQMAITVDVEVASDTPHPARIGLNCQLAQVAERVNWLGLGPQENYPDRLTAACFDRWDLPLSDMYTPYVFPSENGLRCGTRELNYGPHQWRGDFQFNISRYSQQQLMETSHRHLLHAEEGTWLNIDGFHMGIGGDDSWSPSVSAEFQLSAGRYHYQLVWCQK", "assay_type": "functional"}, "[9]": {"experiment": "growth suppression of beta-catenin-knockout colon cells, dose response, cell-based, HCT116, human colon tumor (AID 1045);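 further: HCT116 colon tumor cells with beta catenin knocked out; cells exposed to compound for 60 hours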", "assay_type": "functional"}, "[10]": {"molecular_target": "T3, Kappa-type opioid receptor", "assay_type": "functional", "remark": "listed apart in the source"}, "Streptococcus": {"test_system": "Streptococcus", "experiment": "Group A Streptococcus viability loss, dose response, counter-screen for streptokinase expression inhibitor project, luminescence, BacTiterGlo (AID 1915);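 further: potency for reduction of bacterial viability or growth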", "assay_type": "functional, organism-based"}, "[11]": {"experiment": "cytotoxicity in HEK-293T cells, dose response, cytotoxicity control for TCR NF-kB inhibitor project, luminescence, T-cell screen hits (AID 489026);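 further: cells exposed to compound about 14 hours before the viability readout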", "assay_type": "functional, cell-based"}, "CHO": {"test_system": "CHO", "experiment": "cytotoxicity in TLR9-MyD88 CHO cells, dose response, cytotoxicity control for TLR9-MyD88 binding inhibitor project, cell-based, luminescence (AID 588339);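 further: CHO cells stably coexpressing TLR9 and MyD88 fusions from primary screen; compound exposure lasted 48 hours before viability readout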", "assay_type": "functional, hamster", "settings": "Cricetulus griseus"}, "Beta Lactamase": {"molecular_target": "Beta Lactamase (Pseudomonas aeruginosa, UniProt Q932Y6)", "sequence (Q932Y6 whole entry)": "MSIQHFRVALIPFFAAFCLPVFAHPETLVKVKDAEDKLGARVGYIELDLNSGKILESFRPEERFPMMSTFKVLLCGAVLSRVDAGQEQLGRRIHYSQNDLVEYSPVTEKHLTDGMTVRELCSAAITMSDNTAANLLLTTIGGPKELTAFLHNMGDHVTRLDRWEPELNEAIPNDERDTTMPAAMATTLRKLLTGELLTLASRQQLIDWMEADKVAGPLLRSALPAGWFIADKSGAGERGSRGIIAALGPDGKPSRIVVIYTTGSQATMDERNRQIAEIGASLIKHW", "experiment": "beta-lactamase reporter inhibitor potency, dose response, artefact control for TLR9-MyD88 binding inhibitor project, BLA reporter cells, FRET fluorescence (AID 588341);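 further: cell based assay in CHO-K1 cells stably expressing beta-lactamase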", "assay_type": "cell-based"}, "[12]": {"experiment": "Shn3 3'UTR reporter inhibitors, dose response, cell-based, Clone20 osteoblasts, firefly luciferase, cherry-picked (AID 624132)", "assay_type": "functional"}, "[13]": {"experiment": "HepG2 cell cytotoxicity, dose response, cytotoxicity control for Shn3 inhibitor project, CellTiter-Glo, cherry-picked (AID 624134)", "assay_type": "functional, cell-based"}, "[14]": {"experiment": "control 3'UTR Renilla luciferase suppression, dose response, counter-screen for Shn3 inhibitor project, cell-based, Clone20-Shn3RL, cherry-picked (AID 624133)", "assay_type": "functional"}, "fMet-Leu-Phe receptor": {"molecular_target": "T4, fMet-Leu-Phe receptor (Homo sapiens, UniProt P21462)", "T4 sequence (P21462 whole entry)": "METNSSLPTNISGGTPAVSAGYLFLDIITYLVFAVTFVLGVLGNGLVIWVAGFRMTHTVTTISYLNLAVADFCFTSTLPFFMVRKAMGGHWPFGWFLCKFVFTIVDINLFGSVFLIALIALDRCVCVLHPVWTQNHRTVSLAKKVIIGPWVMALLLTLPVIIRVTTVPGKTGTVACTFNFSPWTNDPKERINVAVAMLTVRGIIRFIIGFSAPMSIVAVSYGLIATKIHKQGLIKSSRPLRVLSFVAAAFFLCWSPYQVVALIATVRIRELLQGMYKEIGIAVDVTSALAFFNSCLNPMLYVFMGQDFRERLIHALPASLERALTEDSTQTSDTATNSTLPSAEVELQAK", "experiment": "FPR ligands, dose response (AID 519)", "assay_type": "functional"}, "[15]": {"experiment": "NIH-3T3 fibroblast cytotoxicity, dose response, cytotoxicity control, cell-based, fluorescence, Alamar Blue, secondary assay (AID 2327);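 further: NIH-3T3 mouse fibroblasts cultured with fluconazole at 8 µg/mL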", "assay_type": "functional"}, "[16]": {"experiment": "C. albicans growth with fluconazole, confirmation, fluorescence, retest (AID 2467)", "assay_type": "functional, cell-based"}, "[17]": {"molecular_target": "Serine/threonine-protein phosphatase (Candida dubliniensis (strain CD36 / CBS 7987 / NCPF 3949 / NRRLY-17841) (Yeast), UniProt B9W6M3)", "experiment": "calcineurin pathway inhibitors in yeast reporter, dose response, S. cerevisiae, CDRE-lacZ, luminescence, secondary (AID 2388);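 further: yeast reporter cells carrying a calcineurin-responsive lacZ construct stimulated with calcium chloride; luminescent beta-galactosidase reporter signal in whole cells rather than isolated phosphatase activity; potency for inhibition where a drop in reporter signal means calcineurin blockade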", "assay_type": "functional, cell-based"}, "[18]": {"molecular_target": "ATP-dependent molecular chaperone HSP82 (Candida albicans (strain WO-1) (Yeast), UniProt C4YTQ8)", "sequence (C4YTQ8 whole entry)": "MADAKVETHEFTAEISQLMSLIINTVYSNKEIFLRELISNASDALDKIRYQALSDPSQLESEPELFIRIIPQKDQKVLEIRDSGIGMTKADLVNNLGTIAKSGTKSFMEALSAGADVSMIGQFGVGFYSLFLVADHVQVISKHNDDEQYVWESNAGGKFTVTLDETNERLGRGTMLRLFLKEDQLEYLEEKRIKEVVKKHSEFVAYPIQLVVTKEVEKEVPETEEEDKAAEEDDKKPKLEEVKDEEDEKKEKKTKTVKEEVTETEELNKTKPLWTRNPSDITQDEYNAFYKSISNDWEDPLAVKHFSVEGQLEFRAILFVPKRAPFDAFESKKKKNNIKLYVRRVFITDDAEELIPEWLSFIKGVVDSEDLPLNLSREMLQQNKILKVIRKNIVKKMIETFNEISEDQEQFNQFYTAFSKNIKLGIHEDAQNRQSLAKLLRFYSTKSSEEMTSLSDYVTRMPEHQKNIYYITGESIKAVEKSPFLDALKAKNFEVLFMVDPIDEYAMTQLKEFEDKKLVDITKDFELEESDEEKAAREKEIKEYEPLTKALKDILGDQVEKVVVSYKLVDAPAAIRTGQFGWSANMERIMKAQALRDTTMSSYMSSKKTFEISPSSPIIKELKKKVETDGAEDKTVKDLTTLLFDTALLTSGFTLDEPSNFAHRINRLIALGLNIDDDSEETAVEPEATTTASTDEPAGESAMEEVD", "experiment": "loss of DOC-induced GRE-beta-galactosidase reporter signal, dose response, Hsp90 inhibitor project, S. cerevisiae, luminescence (AID 2400);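 further: beta-galactosidase luminescence from glucocorticoid response element reporter as proxy for Hsp90 function; inhibitor potency where signal loss means Hsp90 inhibition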", "assay_type": "functional, cell-based"}, "Phospholipase D1": {"molecular_target": "Phospholipase D1 (Homo sapiens, UniProt Q13393)", "sequence (Q13393 whole entry)": "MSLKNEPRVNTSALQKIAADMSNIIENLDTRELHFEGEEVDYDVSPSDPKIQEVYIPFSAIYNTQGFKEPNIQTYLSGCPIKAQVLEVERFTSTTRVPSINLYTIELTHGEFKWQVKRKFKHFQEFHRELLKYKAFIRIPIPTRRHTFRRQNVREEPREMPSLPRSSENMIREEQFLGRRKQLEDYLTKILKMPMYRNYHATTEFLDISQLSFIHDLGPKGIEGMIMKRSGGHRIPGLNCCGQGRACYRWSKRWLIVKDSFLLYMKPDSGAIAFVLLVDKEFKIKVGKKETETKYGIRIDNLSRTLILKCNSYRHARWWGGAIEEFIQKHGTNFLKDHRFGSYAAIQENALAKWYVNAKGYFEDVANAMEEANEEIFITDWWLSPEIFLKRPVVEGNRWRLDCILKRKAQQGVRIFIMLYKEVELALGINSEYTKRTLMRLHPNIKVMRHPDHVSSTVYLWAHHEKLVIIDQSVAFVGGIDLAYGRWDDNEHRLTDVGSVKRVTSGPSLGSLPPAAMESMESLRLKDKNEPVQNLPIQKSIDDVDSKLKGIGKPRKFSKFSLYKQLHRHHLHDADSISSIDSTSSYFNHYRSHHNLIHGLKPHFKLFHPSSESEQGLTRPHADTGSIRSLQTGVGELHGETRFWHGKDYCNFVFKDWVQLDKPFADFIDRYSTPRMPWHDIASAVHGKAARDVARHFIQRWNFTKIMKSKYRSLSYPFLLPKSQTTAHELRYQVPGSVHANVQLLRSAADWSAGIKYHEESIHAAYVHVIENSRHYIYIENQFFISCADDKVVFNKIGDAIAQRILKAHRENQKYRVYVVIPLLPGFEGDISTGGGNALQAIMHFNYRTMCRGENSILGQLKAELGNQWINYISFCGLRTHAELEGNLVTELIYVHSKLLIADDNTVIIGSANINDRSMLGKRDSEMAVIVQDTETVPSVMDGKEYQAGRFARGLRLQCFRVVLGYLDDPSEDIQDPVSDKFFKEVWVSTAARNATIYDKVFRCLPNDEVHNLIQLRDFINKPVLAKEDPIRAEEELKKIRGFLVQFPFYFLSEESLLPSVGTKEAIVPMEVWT", "experiment": "PLD1 inhibitor potency in cells, dose response (AID 602151);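 further: cellular PLD1 assay in Calu-1 cells stimulated with PMA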", "assay_type": "functional"}, "Phospholipase D2": {"molecular_target": "Phospholipase D2 (Homo sapiens, UniProt O14939)", "sequence (O14939 whole entry)": "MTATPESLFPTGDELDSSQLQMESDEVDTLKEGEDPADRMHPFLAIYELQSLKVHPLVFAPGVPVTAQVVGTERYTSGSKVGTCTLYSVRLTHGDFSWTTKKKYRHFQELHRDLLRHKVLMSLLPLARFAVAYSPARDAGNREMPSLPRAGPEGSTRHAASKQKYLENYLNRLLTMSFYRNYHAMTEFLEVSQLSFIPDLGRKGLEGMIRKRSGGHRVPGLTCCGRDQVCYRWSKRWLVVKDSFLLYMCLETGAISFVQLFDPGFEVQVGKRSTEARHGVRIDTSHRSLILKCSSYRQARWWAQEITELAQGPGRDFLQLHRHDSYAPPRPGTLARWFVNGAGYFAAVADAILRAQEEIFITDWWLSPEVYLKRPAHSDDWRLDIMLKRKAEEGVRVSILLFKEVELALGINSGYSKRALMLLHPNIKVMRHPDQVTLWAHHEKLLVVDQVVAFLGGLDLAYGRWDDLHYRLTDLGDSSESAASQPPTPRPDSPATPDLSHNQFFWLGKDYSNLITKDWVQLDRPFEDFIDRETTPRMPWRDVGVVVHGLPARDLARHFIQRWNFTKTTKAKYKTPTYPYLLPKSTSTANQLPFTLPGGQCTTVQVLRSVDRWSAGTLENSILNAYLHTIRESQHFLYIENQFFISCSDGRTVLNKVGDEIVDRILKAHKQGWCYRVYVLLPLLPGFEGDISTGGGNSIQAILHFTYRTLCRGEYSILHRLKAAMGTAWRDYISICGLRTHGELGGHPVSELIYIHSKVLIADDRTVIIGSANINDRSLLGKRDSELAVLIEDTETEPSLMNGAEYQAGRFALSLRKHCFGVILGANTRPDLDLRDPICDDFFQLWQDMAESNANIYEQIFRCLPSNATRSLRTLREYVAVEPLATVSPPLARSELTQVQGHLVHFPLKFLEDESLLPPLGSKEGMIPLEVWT", "experiment": "PLD2 inhibitor potency in cells, dose response (AID 602147);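 further: cellular assay in HEK293 cells overexpressing GFP-tagged PLD2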", "assay_type": "functional"}, "Jurkat": {"test_system": "Jurkat", "experiment": "SAR Analysis of small molecule inhibitors of […] specific antigen receptor-induced NF-kB activation in a Jurkat cell line using a luminescence assay - Set 3. [Related pubchem assays (depositor defined):AID435022, AID435025, AID465]", "assay_type": "functional, cell-based", "settings": "Homo sapiens"}, "HEK293 [19]": {"test_system": "HEK293", "experiment": "SAR Analysis of small molecule inhibitors of B-cell specific antigen receptor-induced NF-kB activation in a HEK-293T cell line using a luminescence assay - Set 2. [Related pubchem assays (depositor defined):AID435022, AID435025, AID489021]", "assay_type": "functional, cell-based", "settings": "Homo sapiens"}, "HEK293 [20]": {"test_system": "HEK293", "experiment": "cytotoxicity in HEK293T NF-kB-Luc cells, SAR follow-up, cytotoxicity control for NF-kB activator project, cell-based, resazurin fluorescence (AID 493251)", "assay_type": "functional", "settings": "Homo sapiens"}},
  "note": "Activity calls are given as the source filed them.",
  "data": [
    {"smiles": "CCOC(=O)c1c(NC(=O)/C=C/C(=O)O)sc(C)c1-c1ccc(Cl)cc1", "values": [
      {"measurement": "CC50", "setting": "Vero", "result": "> 40 µM (active)"},
      {"measurement": "IC50", "setting": "Genome polyprotein", "result": "43 µM (active)"}
    ]},
    {"smiles": "O=S(=O)(Nc1cccc2ncccc12)c1cccs1", "values": [
      {"measurement": "IC50", "setting": "[1]", "result": "> 32 µM (inactive)"},
      {"measurement": "EC50", "setting": "[2]", "result": "15.3 µM (active)"},
      {"measurement": "EC50", "setting": "Mu-type opioid receptor", "result": "> 32 µM (inactive)"},
      {"measurement": "EC50", "setting": "[3]", "result": "3.58 µM (active)"},
      {"measurement": "EC50", "setting": "[4]", "result": "> 32 µM (inactive)"},
      {"measurement": "EC50", "setting": "[5]", "result": "7.05 µM (active)"},
      {"measurement": "EC50", "setting": "[6]", "result": "11.8 µM (active)"},
      {"measurement": "EC50", "setting": "Streptokinase A", "result": "> 150 µM (not active)"},
      {"measurement": "EC50", "setting": "[7]", "result": "1.97 µM (active)"},
      {"measurement": "IC50", "setting": "[8]", "result": "2.64 µM (active)"},
      {"measurement": "EC50", "setting": "Beta-galactosidase", "result": "> 31.5 µM (inactive)"},
      {"measurement": "EC50", "setting": "[9]", "result": "1.62 µM (active)"},
      {"measurement": "IC50", "setting": "[10]", "result": "> 32", "unit": "µM"},
      {"measurement": "EC50", "setting": "Streptococcus", "result": "7.13 µM (active)"},
      {"measurement": "IC50", "setting": "[11]", "result": "> 80 µM (inactive)"},
      {"measurement": "IC50", "setting": "CHO", "result": "4.34 µM (active)"},
      {"measurement": "IC50", "setting": "Beta Lactamase", "result": "> 49.7 µM (inactive)"},
      {"measurement": "AC50", "setting": "[12]", "result": "4.3 µM (active)"},
      {"measurement": "AC50", "setting": "[13]", "result": "6.33 µM (active)"},
      {"measurement": "AC50", "setting": "[14]", "result": "13.2 µM (active)"},
      {"measurement": "Ki", "setting": "fMet-Leu-Phe receptor", "result": "> 66.7 µM (inactive)"}
    ]},
    {"smiles": "CCOc1ccc(NC(=O)c2cn(-c3ccc(OCC)cc3)c(=O)c3cc(OC)c(OC)cc23)cc1", "values": [
      {"measurement": "EC50", "setting": "[15]", "result": "> 160 µM (inconclusive)"},
      {"measurement": "EC50", "setting": "[16]", "result": "0.789 µM (active)"},
      {"measurement": "EC50", "setting": "[17]", "result": "> 180 µM (inactive)"},
      {"measurement": "EC50", "setting": "[18]", "result": "> 160 µM (inactive)"}
    ]},
    {"smiles": "CC(C)[C@@H](CN1CCC2(CC1)C(=O)NCN2c1ccccc1)NC(=O)c1cnc2ccccc2c1", "values": [
      {"measurement": "IC50", "setting": "Phospholipase D1", "result": "0.09 µM (active)"},
      {"measurement": "IC50", "setting": "Phospholipase D2", "result": "0.25 µM (active)"}
    ]},
    {"smiles": "CCOc1ccc(-c2nc(CSCC(=O)NCc3cccnc3)c(C)o2)cc1", "values": [
      {"measurement": "IC50", "setting": "Jurkat", "result": "72.6 µM (inactive)"},
      {"measurement": "IC50", "setting": "HEK293 [19]", "result": "24.2 µM (inactive)"},
      {"measurement": "IC50", "setting": "HEK293 [20]", "result": "65 µM (inactive)"}
    ]}
  ]
}
